Assay results as given in BindingDB's records for patent US20240034727 (Stingray Therapeutics, 2024).

Target: T1, Ectonucleotide pyrophosphatase/phosphodiesterase family member 1 (Homo sapiens, UniProt P22413)
T1 sequence (P22413 whole entry): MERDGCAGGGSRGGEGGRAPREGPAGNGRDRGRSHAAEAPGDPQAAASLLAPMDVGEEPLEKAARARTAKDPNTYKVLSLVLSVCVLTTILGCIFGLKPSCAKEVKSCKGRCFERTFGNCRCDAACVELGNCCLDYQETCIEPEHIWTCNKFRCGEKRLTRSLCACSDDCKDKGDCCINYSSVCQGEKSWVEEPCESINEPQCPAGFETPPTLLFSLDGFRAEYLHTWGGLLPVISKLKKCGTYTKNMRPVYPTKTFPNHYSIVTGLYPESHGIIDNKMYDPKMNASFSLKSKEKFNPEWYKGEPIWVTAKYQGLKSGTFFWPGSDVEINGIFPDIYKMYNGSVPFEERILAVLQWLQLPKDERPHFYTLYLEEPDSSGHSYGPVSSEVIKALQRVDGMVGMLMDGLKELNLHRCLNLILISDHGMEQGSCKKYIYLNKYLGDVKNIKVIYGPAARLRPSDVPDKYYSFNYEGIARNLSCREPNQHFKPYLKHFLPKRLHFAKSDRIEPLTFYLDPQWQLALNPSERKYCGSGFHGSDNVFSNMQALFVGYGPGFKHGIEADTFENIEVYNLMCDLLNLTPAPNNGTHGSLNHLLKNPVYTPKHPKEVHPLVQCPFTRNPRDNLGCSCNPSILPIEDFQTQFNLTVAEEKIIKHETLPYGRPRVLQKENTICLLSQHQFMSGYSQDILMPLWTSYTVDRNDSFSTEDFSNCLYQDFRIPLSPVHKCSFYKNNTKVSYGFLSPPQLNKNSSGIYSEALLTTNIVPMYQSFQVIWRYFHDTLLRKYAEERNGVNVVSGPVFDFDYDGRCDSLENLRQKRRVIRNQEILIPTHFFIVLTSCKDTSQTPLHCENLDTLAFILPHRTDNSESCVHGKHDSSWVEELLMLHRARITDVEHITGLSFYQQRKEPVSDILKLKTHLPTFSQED
Test: ENPP1 Inhibition Assay
Experimental: Assay Buffer: 1 mM CaCl2), 0.2 mM ZnCl2, 50 mM Tris, pH 9.0. Substrate: 8 mM Thymidine 5′-monophosphate p-nitrophenol ester sodium salt (Sigma Cat #T4510). Enzyme: 5 ng/L Recombinant Human ENPP-1 Protein (R&D Cat #6136-EN-010) in DMSO in 96-well clear assay plates. An eight point serial dilution of drugs was prepared in 10 in assay buffer with the final assay concentrations starting at 10 μM, 3 μM, 1 μM, 0.3 μM and 0 μM. A dilution of DMSO was included as a control. The assay plate was set up as follows with each well in duplicate: 81 μL assay buffer+10 μL ENPP1 inhibitor or DMSO+5 μL Substrate+4 μL Enzyme. Both the enzyme and substrate was added to opposite sides of the well to ensure that there was no interaction until all wells had both components. The plate was then centrifuged gently for 10 seconds, followed by an incubation at 37 C. for 45 minutes. The reaction was quantified by measuring absorbance at 405 nm using the Envision. IC50 values are determined using GraphPad Prism 5 software. The data were entered as an X-Y plot into the software as percent inhibition for each concentration of the drug. The concentration values of the drug were log transformed and the nonlinear regression was carried out using the sigmoidal dose-response (variable slope) option within the GraphPad software to model the data and calculate IC50 values. […]

Compound | IC50
COc1ccc(NC(=O)CSc2nc(C(=O)O)c[nH]2)cc1Cl [US20240034727, Compound I-35] | < 0.2 µM
O=C(CSc1nc(C(=O)O)c[nH]1)NCc1cccc(Cl)c1 [US20240034727, Compound I-21] | > 10 µM
